Columns and labels:
gel-filtered platelets = assay: In vitro inhibition of thrombin-induced gel-filtered platelet aggregation; assay type: cell-based; details: Platelet; human gel-filtered platelets; agonist thrombin 50 μL of 1 unit/mL; read-out: Thrmb IC50 (Thrombin-induced aggregation of gel-filtered platelets)
In short: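 Gel-filtered (Sepharose 2B) human platelets from citrated PRP, 2×10^7 per sample, in Tyrode's buffer pH 7.4 with BSA and added calcium, preincubated with test compound. Aggregation induced by thrombin (50 μL of 1 unit/mL) and followed as light transmission over 3 min. Inhibition is taken relative to control-treated platelets.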

[1] = molecular target: T1, thrombin receptor (PAR-1) (Homo sapiens, UniProt P25116); assay: In vitro thrombin receptor binding assay (CHRF membranes); details: tritiated 721-40 radioligand, read-out: Bndg IC50 (Thrombin receptor binding)
T1 construct: CHRF membranes (Jones, Biochim. Biophys. Acta 1992, 1136, 272) are thawed from −70° C; endogenous in cells; host or cells: CHRF cell membranes
T1 sequence (P25116 22-425): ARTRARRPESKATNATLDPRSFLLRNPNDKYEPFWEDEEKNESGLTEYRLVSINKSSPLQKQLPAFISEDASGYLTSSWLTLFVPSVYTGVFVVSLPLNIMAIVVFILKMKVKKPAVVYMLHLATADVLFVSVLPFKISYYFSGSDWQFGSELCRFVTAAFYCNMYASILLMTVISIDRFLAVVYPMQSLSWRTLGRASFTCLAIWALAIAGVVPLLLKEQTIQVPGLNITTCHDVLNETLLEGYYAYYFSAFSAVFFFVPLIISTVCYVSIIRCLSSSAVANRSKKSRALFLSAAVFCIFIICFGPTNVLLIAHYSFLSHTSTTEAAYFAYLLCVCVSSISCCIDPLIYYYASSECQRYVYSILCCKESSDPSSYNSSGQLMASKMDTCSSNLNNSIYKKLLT
In short: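 CHRF cell membranes incubated 30 min with tritiated peptide agonist 721–40 and compound at 3.7 μg/mL final (0.6% DMSO) in HEPES/MgCl2/BSA buffer. Nonspecific binding defined with unlabeled 721–40; bound radioactivity counted after filtration onto PEI-treated filters.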

Structure (SMILES)	IC50 (gel-filtered platelets) [µM]	IC50 [1] [µM]
NCCNC(=O)[C@H](Cc1cscn1)NC(=O)[C@H](Cc1ccc(Cl)cc1)NC(=O)Nc1ccc2c(CN3CCCC3)cn(Cc3c(Cl)cccc3Cl)c2c1 [Compound 137]	0.94	0.81
COc1ccc(C[C@H](NC(=O)Nc2ccc3c(CN4CCCC4)cn(Cc4cccc(OC)c4)c3c2)C(=O)N[C@@H](CCCNC(=N)N)C(=O)NCc2ccccc2)cc1 [Compound 16]	25.8	11.5

From US7183252B2, “Indole peptidomimetics as thrombin receptor antagonists” (Ortho-McNeil Pharmaceutical, Inc., priority 1999, dated 2007)
